Laboratory results published in ChEMBL document CHEMBL4011618, “Discovery of Potent, Selective Stem Cell Factor Receptor/Platelet Derived Growth Factor Receptor Alpha (c-KIT/PDGFRα) Dual Inhibitor for the Treatment of Imatinib-Resistant Gastrointestinal Stromal Tumors (GISTs)” (J Med Chem, 2017).

Key:
[1] = biological target: T1, Platelet-derived growth factor receptor alpha (Homo sapiens, UniProt P16234); experiment: Inhibition of PDGFRalpha (unknown origin) using FAM-labeled peptide as substrate preincubated for 10 mins followed by substrate addition in presence of ATP by mobility shift assay
[2] = biological target: T2, Mast/stem cell growth factor receptor Kit (Homo sapiens, UniProt P10721)
Description: Inhibition of cKIT (unknown origin) using FAM-labeled peptide as substrate preincubated for 10 mins followed by substrate addition in presence of ATP by mobility shift assay

[3] = biological target: Vascular endothelial growth factor receptor 2 (Homo sapiens, UniProt P35968)
Description: Inhibition of VEGFR2 (unknown origin) using FAM-labeled peptide as substrate preincubated for 10 mins followed by substrate addition in presence of ATP by mobility shift assay

[4] = biological target: Fibroblast growth factor receptor 1 (Homo sapiens, UniProt P11362); experiment: Inhibition of FGFR1 (unknown origin) using FAM-labeled peptide as substrate preincubated for 10 mins followed by substrate addition in presence of ATP by mobility shift assay
[5] = test system: Mast/stem cell growth factor receptor Kit (Homo sapiens), P10721 [T670I]
Description: Inhibition of TEL-fused cKIT T670I mutant (unknown origin) expressed in mouse BAF3 cells assessed as cell growth inhibition after 72 hrs by cell titer-glo assay

[6] = biological target: T1, Platelet-derived growth factor receptor alpha
Description: Inhibition of TEL-fused PDGFRalpha (unknown origin) expressed in mouse BAF3 cells assessed as cell growth inhibition after 72 hrs by cell titer-glo assay

[7] = test system: Platelet-derived growth factor receptor alpha (Homo sapiens), P16234 [T674I]
Description: Inhibition of TEL-fused PDGFRalpha T674I mutant (unknown origin) expressed in mouse BAF3 cells assessed as cell growth inhibition after 72 hrs by cell titer-glo assay

[8] = biological target: T2, Mast/stem cell growth factor receptor Kit; remark: listed apart in the source
Description: Inhibition of TEL-fused cKIT (unknown origin) expressed in mouse BAF3 cells assessed as cell growth inhibition after 72 hrs by cell titer-glo assay

T2 sequence (P10721 whole entry): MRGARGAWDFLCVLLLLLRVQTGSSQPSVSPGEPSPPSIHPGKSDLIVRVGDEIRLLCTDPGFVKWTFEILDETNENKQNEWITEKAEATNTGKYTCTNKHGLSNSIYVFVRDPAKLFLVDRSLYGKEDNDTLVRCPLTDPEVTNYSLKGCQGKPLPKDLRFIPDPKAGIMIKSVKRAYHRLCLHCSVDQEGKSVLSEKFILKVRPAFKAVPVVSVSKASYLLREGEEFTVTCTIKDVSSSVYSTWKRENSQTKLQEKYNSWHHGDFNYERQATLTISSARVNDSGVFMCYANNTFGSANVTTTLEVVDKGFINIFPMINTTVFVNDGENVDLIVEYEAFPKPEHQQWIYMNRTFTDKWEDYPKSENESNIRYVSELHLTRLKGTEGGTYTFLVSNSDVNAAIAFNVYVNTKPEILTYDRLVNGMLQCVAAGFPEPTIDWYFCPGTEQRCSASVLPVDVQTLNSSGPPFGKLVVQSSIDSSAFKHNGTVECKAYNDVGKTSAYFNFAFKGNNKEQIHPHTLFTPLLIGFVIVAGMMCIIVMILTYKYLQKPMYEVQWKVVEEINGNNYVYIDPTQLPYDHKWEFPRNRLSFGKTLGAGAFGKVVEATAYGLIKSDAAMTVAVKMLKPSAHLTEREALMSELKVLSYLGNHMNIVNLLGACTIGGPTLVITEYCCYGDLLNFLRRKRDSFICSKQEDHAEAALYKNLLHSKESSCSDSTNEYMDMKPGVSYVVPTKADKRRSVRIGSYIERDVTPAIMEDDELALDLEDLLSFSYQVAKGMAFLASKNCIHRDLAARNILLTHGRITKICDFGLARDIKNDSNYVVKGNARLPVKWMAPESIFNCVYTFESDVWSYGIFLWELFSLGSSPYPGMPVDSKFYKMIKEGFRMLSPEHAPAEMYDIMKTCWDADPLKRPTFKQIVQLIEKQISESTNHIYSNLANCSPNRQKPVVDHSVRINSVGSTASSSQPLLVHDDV
Sequence of Mast/stem cell growth factor receptor Kit (Homo sapiens), P10721 [T670I] (P10721 whole entry T670I): as the sequence (P10721 whole entry) above, with T670I counted along it
Sequence of Vascular endothelial growth factor receptor 2 (P35968 whole entry): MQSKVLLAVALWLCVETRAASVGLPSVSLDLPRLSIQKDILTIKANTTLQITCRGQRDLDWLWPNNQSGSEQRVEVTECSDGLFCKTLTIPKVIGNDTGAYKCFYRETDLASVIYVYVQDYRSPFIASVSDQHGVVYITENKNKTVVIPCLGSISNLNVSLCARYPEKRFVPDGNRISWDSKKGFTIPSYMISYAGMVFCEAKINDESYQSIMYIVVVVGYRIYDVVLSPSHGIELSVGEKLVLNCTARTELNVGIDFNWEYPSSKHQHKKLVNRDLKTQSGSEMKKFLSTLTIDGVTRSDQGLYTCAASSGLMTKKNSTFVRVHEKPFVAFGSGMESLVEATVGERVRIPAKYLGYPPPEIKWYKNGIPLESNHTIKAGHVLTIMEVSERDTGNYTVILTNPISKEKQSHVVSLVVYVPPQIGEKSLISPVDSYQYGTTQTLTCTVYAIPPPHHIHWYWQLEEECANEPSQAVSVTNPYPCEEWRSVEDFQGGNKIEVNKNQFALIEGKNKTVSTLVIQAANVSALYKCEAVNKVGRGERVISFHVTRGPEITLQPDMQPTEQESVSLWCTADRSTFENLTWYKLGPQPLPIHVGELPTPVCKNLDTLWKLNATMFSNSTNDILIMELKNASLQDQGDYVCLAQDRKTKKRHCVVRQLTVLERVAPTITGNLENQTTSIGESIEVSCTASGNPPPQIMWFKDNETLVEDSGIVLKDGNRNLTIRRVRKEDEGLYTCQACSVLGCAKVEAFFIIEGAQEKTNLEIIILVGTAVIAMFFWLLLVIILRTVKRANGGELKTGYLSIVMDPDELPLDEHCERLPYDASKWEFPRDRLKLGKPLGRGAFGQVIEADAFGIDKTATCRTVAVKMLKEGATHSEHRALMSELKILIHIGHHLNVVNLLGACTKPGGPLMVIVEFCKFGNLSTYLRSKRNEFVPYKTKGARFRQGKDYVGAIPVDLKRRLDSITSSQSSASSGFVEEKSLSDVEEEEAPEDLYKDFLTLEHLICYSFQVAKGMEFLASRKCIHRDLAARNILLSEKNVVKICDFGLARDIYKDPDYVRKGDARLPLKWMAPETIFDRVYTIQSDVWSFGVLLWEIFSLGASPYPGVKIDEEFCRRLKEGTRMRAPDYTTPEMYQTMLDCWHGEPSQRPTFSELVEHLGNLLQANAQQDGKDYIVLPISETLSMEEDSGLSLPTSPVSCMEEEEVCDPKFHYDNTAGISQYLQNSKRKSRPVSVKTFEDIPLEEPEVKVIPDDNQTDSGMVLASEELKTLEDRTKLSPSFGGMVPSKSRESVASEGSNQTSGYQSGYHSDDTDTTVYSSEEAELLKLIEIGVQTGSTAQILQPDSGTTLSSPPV
Sequence of Fibroblast growth factor receptor 1 (P11362 whole entry): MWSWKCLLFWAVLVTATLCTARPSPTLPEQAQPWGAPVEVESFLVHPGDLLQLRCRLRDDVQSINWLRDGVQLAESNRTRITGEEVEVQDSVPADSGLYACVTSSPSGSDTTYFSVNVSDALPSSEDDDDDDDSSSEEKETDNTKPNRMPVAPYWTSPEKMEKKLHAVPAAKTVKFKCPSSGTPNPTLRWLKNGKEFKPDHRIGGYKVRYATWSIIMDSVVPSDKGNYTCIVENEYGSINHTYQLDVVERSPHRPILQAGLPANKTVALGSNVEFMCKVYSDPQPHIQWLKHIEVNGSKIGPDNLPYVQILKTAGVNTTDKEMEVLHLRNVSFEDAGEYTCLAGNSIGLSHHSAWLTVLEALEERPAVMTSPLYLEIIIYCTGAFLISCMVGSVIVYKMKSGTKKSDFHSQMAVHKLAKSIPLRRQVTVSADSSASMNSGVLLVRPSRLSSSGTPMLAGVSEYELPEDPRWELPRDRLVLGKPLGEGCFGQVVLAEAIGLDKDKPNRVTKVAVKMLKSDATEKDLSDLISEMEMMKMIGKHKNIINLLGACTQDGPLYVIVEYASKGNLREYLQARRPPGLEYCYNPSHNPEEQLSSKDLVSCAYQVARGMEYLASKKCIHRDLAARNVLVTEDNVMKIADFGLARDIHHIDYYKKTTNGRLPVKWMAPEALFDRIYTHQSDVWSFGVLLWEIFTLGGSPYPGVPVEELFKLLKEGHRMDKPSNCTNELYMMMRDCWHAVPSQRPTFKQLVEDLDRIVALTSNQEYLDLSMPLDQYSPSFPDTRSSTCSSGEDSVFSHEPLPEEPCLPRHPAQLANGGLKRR
T1 sequence (P16234 whole entry): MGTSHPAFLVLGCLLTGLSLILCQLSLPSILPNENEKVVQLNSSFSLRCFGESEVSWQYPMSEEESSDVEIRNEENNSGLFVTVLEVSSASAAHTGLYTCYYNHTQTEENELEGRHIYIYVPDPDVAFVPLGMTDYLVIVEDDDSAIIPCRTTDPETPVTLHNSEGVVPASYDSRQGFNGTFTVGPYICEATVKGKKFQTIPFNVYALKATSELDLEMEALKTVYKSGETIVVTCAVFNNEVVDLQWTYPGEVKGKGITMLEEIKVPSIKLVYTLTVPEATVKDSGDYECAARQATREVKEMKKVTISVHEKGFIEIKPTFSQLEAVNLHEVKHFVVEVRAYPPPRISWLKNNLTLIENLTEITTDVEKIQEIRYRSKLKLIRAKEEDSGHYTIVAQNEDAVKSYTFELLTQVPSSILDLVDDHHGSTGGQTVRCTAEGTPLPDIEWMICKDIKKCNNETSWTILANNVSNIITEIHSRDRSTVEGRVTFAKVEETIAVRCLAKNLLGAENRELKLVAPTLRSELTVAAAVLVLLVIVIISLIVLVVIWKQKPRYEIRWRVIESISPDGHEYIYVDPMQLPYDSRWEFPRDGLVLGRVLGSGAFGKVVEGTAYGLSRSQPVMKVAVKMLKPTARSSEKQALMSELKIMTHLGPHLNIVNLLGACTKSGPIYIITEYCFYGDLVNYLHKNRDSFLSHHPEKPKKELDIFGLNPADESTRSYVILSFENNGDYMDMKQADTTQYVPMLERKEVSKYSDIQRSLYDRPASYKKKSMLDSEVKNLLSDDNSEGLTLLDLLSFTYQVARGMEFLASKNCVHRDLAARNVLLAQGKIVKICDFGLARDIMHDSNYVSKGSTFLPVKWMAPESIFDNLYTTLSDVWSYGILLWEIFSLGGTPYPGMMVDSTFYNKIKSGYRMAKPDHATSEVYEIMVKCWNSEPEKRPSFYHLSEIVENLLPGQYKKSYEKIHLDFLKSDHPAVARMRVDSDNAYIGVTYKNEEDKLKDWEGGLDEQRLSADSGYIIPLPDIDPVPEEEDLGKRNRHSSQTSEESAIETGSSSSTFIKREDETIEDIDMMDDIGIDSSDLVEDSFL
Sequence of Platelet-derived growth factor receptor alpha (Homo sapiens), P16234 [T674I] (P16234 whole entry T674I): as the sequence (P16234 whole entry) above, with T674I counted along it

Cc1n[nH]c2nccc(-c3ccc(NC(=O)Nc4ccn[nH]4)cc3)c12
IC50 [1]: 0.411 µM
IC50 [2]: 0.12 µM
IC50 [3]: 2.39 µM

Cc1ccc(F)c(NC(=O)Nc2ccc(C3CC(O)=Nc4[nH]nc(C)c43)cc2)c1 (centres undefined)
IC50 [4]: 33.8 µM
GI50 [5]: > 10 µM
IC50 [1]: > 50 µM
GI50 [6]: 4.25 µM
GI50 [7]: > 10 µM
IC50 [3]: > 50 µM
GI50 [8]: > 10 µM

Cc1cc(NC(=O)Nc2ccc(-c3ccnc4[nH]nc(C)c34)cc2)ccc1N1CCN(C)CC1
IC50 [1]: 0.127 µM
IC50 [2]: 0.0072 µM
IC50 [3]: 3.7 µM

Cc1cccc(NC(=O)Nc2ccc(-c3cc(O)nc4[nH]nc(C)c34)cc2)c1
IC50 [4]: 2.26 µM
IC50 [1]: 0.56 µM
IC50 [3]: 1.22 µM

Cc1n[nH]c2nccc(-c3ccc(NC(=O)Nc4cccc(CN(C)C)c4)cc3)c12
IC50 [1]: 4.61 µM
IC50 [2]: 22.1 µM
IC50 [3]: 15.9 µM

Cc1n[nH]c2nccc(-c3ccc(NC(=O)NCc4cccs4)cc3)c12
IC50 [1]: 0.157 µM
IC50 [2]: 0.026 µM
IC50 [3]: 1.79 µM

Cc1n[nH]c2nccc(-c3ccc(NC(=O)NC4CCCC4)cc3)c12
GI50 [5]: > 10 µM
IC50 [1]: 0.576 µM
IC50 [2]: 0.144 µM
GI50 [6]: 0.0133 µM
GI50 [7]: > 10 µM
IC50 [3]: 6.23 µM
GI50 [8]: > 10 µM

Cc1n[nH]c2nccc(-c3ccc(NC(=O)NC(C)(C)C)cc3)c12
IC50 [1]: 1.47 µM
IC50 [2]: 1.42 µM
IC50 [3]: 11.4 µM

CCN(CC)c1cccc(NC(=O)Nc2ccc(-c3ccnc4[nH]nc(C)c34)cc2)c1
IC50 [1]: 0.136 µM
IC50 [2]: 0.012 µM
IC50 [3]: 42 µM

Cc1n[nH]c2nccc(-c3ccc(NC(=O)NCc4ccccn4)cc3)c12
IC50 [1]: 0.472 µM
IC50 [2]: 0.078 µM
IC50 [3]: 4.08 µM

Cc1n[nH]c2nccc(-c3ccc(NC(=O)NCCc4ccccc4)cc3)c12
IC50 [1]: 0.082 µM
IC50 [2]: 0.0037 µM

Cc1n[nH]c2nccc(-c3ccc(NC(=O)NCc4ccco4)cc3)c12
IC50 [1]: 0.387 µM
IC50 [2]: 0.051 µM
IC50 [3]: 3.5 µM

Cc1n[nH]c2nccc(-c3ccc(NC(=S)Nc4cccc(Br)c4)cc3)c12
IC50 [4]: 20 µM
IC50 [1]: 1.08 µM
IC50 [3]: 6.24 µM

CCCCNC(=O)Nc1ccc(-c2ccnc3[nH]nc(C)c23)cc1
IC50 [1]: 43.9 µM
IC50 [2]: 20.6 µM
IC50 [3]: > 50 µM

Cc1ccc(NC(=O)Nc2ccc(-c3ccnc4[nH]nc(C)c34)cc2)cc1
IC50 [1]: 0.065 µM
IC50 [2]: 1.83 µM
IC50 [3]: 5.61 µM

Cc1n[nH]c2nccc(-c3ccc(NC(=O)Nc4cccc(N(C)C)c4)cc3)c12
IC50 [1]: 0.083 µM
IC50 [2]: 0.0026 µM
IC50 [3]: 6.92 µM

Cc1n[nH]c2nccc(-c3ccc(NC(=O)Nc4cccc(N5CCN(C)CC5)c4)cc3)c12
IC50 [1]: 0.215 µM
IC50 [2]: 0.019 µM
IC50 [3]: 6.24 µM

Cc1ccccc1NC(=O)Nc1ccc(-c2ccnc3[nH]nc(C)c23)cc1
IC50 [1]: 0.305 µM
IC50 [2]: 10.9 µM
IC50 [3]: 4.32 µM

CCc1cccc(NC(=O)Nc2ccc(-c3ccnc4[nH]nc(CO)c34)cc2)c1
IC50 [1]: 0.032 µM
IC50 [2]: 0.0037 µM
IC50 [3]: 3.36 µM

Cc1n[nH]c2nccc(-c3ccc(NC(=O)Nc4ccccn4)cc3)c12
IC50 [1]: 0.401 µM
IC50 [2]: 0.02 µM
IC50 [3]: > 50 µM

Cc1n[nH]c2nccc(-c3ccc(NC(=O)Nc4cccc(C#N)c4)cc3)c12
IC50 [1]: 21.4 µM
IC50 [2]: 0.201 µM
IC50 [3]: > 50 µM

Cc1n[nH]c2nccc(-c3ccc(NC(=O)Nc4ccc5ccccc5c4)cc3)c12
IC50 [1]: 0.124 µM
IC50 [2]: 0.02 µM
IC50 [3]: > 50 µM

Cc1n[nH]c2nccc(-c3ccc(NC(=O)Nc4cccc(C(F)(F)F)c4)cc3)c12
IC50 [4]: > 50 µM
IC50 [1]: 0.106 µM
IC50 [3]: 1.92 µM

Cc1ccc(N2CCOCC2)c(NC(=O)Nc2ccc(-c3ccnc4[nH]nc(C)c34)cc2)c1
IC50 [1]: 18.9 µM
IC50 [2]: 0.397 µM
IC50 [3]: 26.2 µM

Cc1cc(N2CCN(C)CC2)ccc1NC(=O)Nc1ccc(-c2ccnc3[nH]nc(C)c23)cc1
IC50 [1]: 1.1 µM
IC50 [2]: 2.22 µM
IC50 [3]: 6.82 µM

Cc1n[nH]c2nccc(-c3ccc(NC(=O)Nc4cccc(F)c4)cc3)c12
IC50 [1]: 0.262 µM
IC50 [2]: 4.79 µM
IC50 [3]: 6.23 µM

Cc1n[nH]c2nccc(-c3ccc(NC(=O)Nc4ccc(N(C)C)cc4)cc3)c12
IC50 [1]: 0.309 µM
IC50 [2]: 0.0093 µM
IC50 [3]: 9.05 µM

Cc1ccc(N2CCN(C)CC2)c(NC(=O)Nc2ccc(-c3ccnc4[nH]nc(C)c34)cc2)c1
IC50 [1]: 1.78 µM
IC50 [2]: 1.95 µM
IC50 [3]: 3.94 µM

CCNC(=O)Nc1ccc(-c2ccnc3[nH]nc(C)c23)cc1
IC50 [1]: > 50 µM
IC50 [2]: 38.7 µM
IC50 [3]: > 50 µM

Cc1ccc(F)c(NC(=O)Nc2ccc(-c3cccc4[nH]nc(N)c34)cc2)c1 [LINIFANIB]
GI50 [5]: 0.0371 µM
IC50 [1]: 0.015 µM
GI50 [6]: 0.0104 µM
GI50 [7]: 0.104 µM
GI50 [8]: 0.0887 µM

CCc1cccc(NC(=O)Nc2ccc(-c3ccnc4[nH]nc(C(F)(F)F)c34)cc2)c1
IC50 [1]: > 5 µM
IC50 [2]: 6.77 µM
IC50 [3]: > 50 µM

Cc1n[nH]c2nccc(-c3ccc(NC(=O)NCC(C)C)cc3)c12
IC50 [1]: 1.12 µM
IC50 [2]: 0.32 µM
IC50 [3]: 8.63 µM

Cc1cccc(NC(=O)Nc2ccc(-c3ccnc4[nH]nc(CO)c34)cc2)c1
GI50 [5]: 1.84 µM
IC50 [1]: 0.087 µM
IC50 [2]: 0.0024 µM
GI50 [6]: 0.0104 µM
GI50 [7]: 5 µM
IC50 [3]: 4.92 µM
GI50 [8]: 1.07 µM

Cc1n[nH]c2nccc(-c3ccc(NC(=S)Nc4cccc(C(F)(F)F)c4)cc3)c12
IC50 [4]: 42.9 µM
IC50 [1]: 1.57 µM
IC50 [3]: 8.01 µM

Cc1n[nH]c2nccc(-c3ccc(NC(=O)Nc4cccnc4)cc3)c12
IC50 [1]: 0.313 µM
IC50 [2]: 0.014 µM
IC50 [3]: 3.11 µM

CCCCCNC(=O)Nc1ccc(-c2ccnc3[nH]nc(C)c23)cc1
IC50 [1]: 0.164 µM
IC50 [2]: 0.0035 µM
IC50 [3]: > 50 µM

Cc1n[nH]c2nccc(-c3ccc(NC(=O)NC4CCC4)cc3)c12
IC50 [1]: 0.732 µM
IC50 [2]: 0.318 µM
IC50 [3]: 5 µM

Cc1n[nH]c2nccc(-c3ccc(NC(=O)NC4CC4)cc3)c12
IC50 [1]: 1.13 µM
IC50 [2]: 0.553 µM
IC50 [3]: 4.52 µM

Cc1ccc(F)c(NC(=O)Nc2ccc(-c3ccnc4[nH]nc(C)c34)cc2)c1
IC50 [4]: > 50 µM
IC50 [1]: 0.087 µM
IC50 [3]: 4.29 µM

Cc1n[nH]c2nccc(-c3ccc(NC(=O)Nc4ccccc4N4CCOCC4)cc3)c12
IC50 [1]: 4.08 µM
IC50 [2]: 6.44 µM
IC50 [3]: 36.9 µM

Cc1n[nH]c2nccc(-c3ccc(NC(=O)Nc4cccc(Br)c4)cc3)c12
IC50 [4]: > 50 µM
IC50 [1]: 0.137 µM
IC50 [3]: 3.15 µM

Cc1cccc(NC(=O)Nc2ccc(C3CC(O)=Nc4[nH]nc(C)c43)cc2)c1 (centres undefined)
IC50 [4]: 18.3 µM
IC50 [1]: > 50 µM
IC50 [3]: > 50 µM

CCN(CC)c1ccc(NC(=O)Nc2ccc(-c3ccnc4[nH]nc(C)c34)cc2)cc1
IC50 [1]: 0.176 µM
IC50 [2]: 0.012 µM
IC50 [3]: 5.35 µM

Cc1n[nH]c2nccc(-c3ccc(NC(=O)Nc4cnc5ccccc5c4)cc3)c12
GI50 [5]: 0.217 µM
IC50 [1]: 0.022 µM
IC50 [2]: 0.0019 µM
GI50 [6]: 0.0104 µM
GI50 [7]: 1.51 µM
IC50 [3]: 1.84 µM
GI50 [8]: 0.0833 µM

CCCNC(=O)Nc1ccc(-c2ccnc3[nH]nc(C)c23)cc1
IC50 [1]: > 50 µM
IC50 [2]: 21.4 µM
IC50 [3]: > 50 µM

Cc1n[nH]c2nccc(-c3ccc(NC(=O)Nc4cccc(Cl)c4)cc3)c12
IC50 [1]: 0.182 µM
IC50 [2]: 2.4 µM
IC50 [3]: 4.05 µM

Cc1n[nH]c2nccc(-c3ccc(NC(=O)NCCCc4ccccc4)cc3)c12
GI50 [5]: 1.67 µM
IC50 [1]: 0.024 µM
IC50 [2]: 0.0017 µM
GI50 [6]: 0.0104 µM
GI50 [7]: 2.05 µM
IC50 [3]: 3.86 µM
GI50 [8]: 3.02 µM

Cc1n[nH]c2nccc(-c3ccc(NC(=O)NCCCCc4ccccc4)cc3)c12
IC50 [1]: 0.135 µM
IC50 [2]: 0.0062 µM
IC50 [3]: 10.9 µM

Cc1cccc(NC(=O)Nc2ccc(-c3ccnc4[nH]nc(C(F)(F)F)c34)cc2)c1
GI50 [5]: > 10 µM
IC50 [1]: > 50 µM
IC50 [2]: > 50 µM
GI50 [6]: 0.465 µM
GI50 [7]: > 10 µM
IC50 [3]: > 50 µM
GI50 [8]: > 10 µM

Cc1ccc(F)c(NC(=O)Nc2ccc(-c3cc(O)nc4[nH]nc(C)c34)cc2)c1
IC50 [4]: 4.64 µM
GI50 [5]: > 10 µM
IC50 [1]: 1.18 µM
GI50 [6]: 0.205 µM
GI50 [7]: > 10 µM
IC50 [3]: 1.86 µM
GI50 [8]: > 10 µM

Cc1n[nH]c2nccc(-c3ccc(NC(=O)Nc4cccc5ccccc45)cc3)c12
IC50 [1]: 0.097 µM
IC50 [2]: 0.0036 µM
IC50 [3]: > 50 µM

CCc1cccc(NC(=O)Nc2ccc(-c3ccnc4[nH]nc(C)c34)cc2)c1
IC50 [1]: 0.022 µM
IC50 [2]: 0.0039 µM
IC50 [3]: 1.21 µM

Cc1n[nH]c2nccc(-c3ccc(NC(=O)NCc4ccccc4)cc3)c12
IC50 [1]: > 50 µM
IC50 [2]: 46.1 µM
IC50 [3]: > 50 µM

Cc1n[nH]c2nccc(-c3ccc(NC(=O)NC4CCCCC4)cc3)c12
IC50 [1]: > 50 µM
IC50 [2]: > 50 µM
IC50 [3]: > 50 µM

Cc1n[nH]c2nccc(-c3ccc(NC(=O)NC4Cc5ccccc5C4)cc3)c12
IC50 [1]: 0.083 µM
IC50 [2]: 0.0087 µM
IC50 [3]: > 50 µM

CCCCCCNC(=O)Nc1ccc(-c2ccnc3[nH]nc(C)c23)cc1
GI50 [5]: 1.78 µM
IC50 [1]: 0.027 µM
IC50 [2]: 0.0014 µM
GI50 [6]: 0.0104 µM
GI50 [7]: 3.18 µM
IC50 [3]: 10.5 µM
GI50 [8]: 3.03 µM

Cc1n[nH]c2nccc(-c3ccc(NC(=O)Nc4ccccc4N4CCN(C)CC4)cc3)c12
IC50 [1]: 0.928 µM
IC50 [2]: 4.58 µM
IC50 [3]: 4.16 µM
